Reference: patent publication US12428428B2, “Tricyclic tetrahydroisoquinoline derivative, preparation method therefor and application thereof in medicine” (JIANGSU HENGRUI MEDICINE CO., LTD., priority 2020, dated 2025)

Target: CYP3A4 (Homo sapiens (Human), UniProt P08684)
Experiment: Time-dependent inhibition of site of metabolism of midazolam in human liver microsome CYP3A4
Type: in vitro ADME
Details: midazolam substrate; for IC50 shift at 30 min: human, human liver microsomes, probe midazolam (3 µM)
Method: • 1. Phosphate buffer (20×PBS, purchased from Sangon); • 2. NADPH (ACROS, A2646-71-1); • 3. Human liver microsome (Corning Gentest, Cat No, 452161, Lot No. 9050002, Donor, 36); • 4. ABI QTrap 4000 LC-MS System (AB Sciex); • 5. ZORBAX Extend-C18, 3×50 mm, 3.5 μm (Agilent, USA); • 6. CYP probe substrate (midazolam, TRC, M343000/3 μM) and positive control inhibitor (verapamil, Adamas Reagent Co, Ltd, Cat No. 25904A).
A 100 mM PBS buffer was prepared. A 0.25 mg/mL microsome solution, a 7.5 mM MgCl2 and a 5 mM NADPH solution were prepared using the buffer. A 30 mM stock solution was diluted with DMSO to obtain 30 mM, 10 mM, 3 mM, 1 mM, 0.3 mM, 0.1 mM, 0.03 mM and 0 mM serial solutions I, which were further diluted 200-fold with phosphate buffer (PBS) to obtain serial test solutions II (150, 50, 15, 5, 1.5, 0.5, 0.15 and 0 μM). A midazolam working solution was diluted with PBS to 15 μM.
The serial test solutions prepared above were well mixed by shaking and aliquoted in 20 μL portions into corresponding reaction plates (+NADPH, T0 and −NADPH groups were set). Three parallel tests were set. 40 μL of the liver microsome working solution was added to each 96-well plate. 20 μL of a corresponding substrate solution was added to the T0 plate. 20 μL of NADPH was added to the TO plate and +NADPH group. A timer was started, and the plates were incubated in a water bath at 37° C. After 30 min of incubation, the TO plate was taken out, and the reaction was terminated with 250 μL of an internal standard-containing ACN solution. The +NADPH group was supplemented with 20 μL of the corresponding substrate solution, and the −NADPH group was supplemented with 20 μL of the corresponding substrate solution and […]. A timer was started, and the plates were incubated in a water bath at 37° C. After 30 min of incubation, the plates were taken out, and the reactions were terminated with 250 μL of an internal standard-containing ACN solution. Then the plates were shaken on a shaker at 800 rpm for 10 min and centrifuged at 4000 rpm for 15 min. 100 μL of the supernatant and 80 μL of ultrapure water were well mixed and subjected to LC-MS/MS analysis.
The IC50 values of the drugs for the site of metabolism of midazolam in CYP3A4 were calculated using Graphpad Prism and are shown in Table 7.

[1] = 30 min pre-incubation with NADPH

Sequence of CYP3A4 (P08684 whole entry): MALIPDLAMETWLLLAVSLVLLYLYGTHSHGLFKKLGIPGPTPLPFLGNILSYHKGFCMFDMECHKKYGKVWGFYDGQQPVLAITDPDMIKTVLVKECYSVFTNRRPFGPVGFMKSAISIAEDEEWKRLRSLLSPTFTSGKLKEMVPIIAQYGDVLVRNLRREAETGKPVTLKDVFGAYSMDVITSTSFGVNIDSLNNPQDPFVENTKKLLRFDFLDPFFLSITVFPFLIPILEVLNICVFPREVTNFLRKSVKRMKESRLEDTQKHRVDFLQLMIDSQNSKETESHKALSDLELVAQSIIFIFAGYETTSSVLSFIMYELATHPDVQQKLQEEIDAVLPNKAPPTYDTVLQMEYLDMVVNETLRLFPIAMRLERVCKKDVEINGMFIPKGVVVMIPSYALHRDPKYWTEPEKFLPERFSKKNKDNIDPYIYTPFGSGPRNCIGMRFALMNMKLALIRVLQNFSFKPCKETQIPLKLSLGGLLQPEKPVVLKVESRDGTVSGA

IC50 shift at 30 min | IC50 [1] [µM] | IC50 (pre-incubation without NADPH) [µM] | Compound
0.9 | 9.16 | 10.2 | [2H]C1([2H])Oc2cc3c(cc2O1)[C@@H](c1ccc(N[C@H]2CCN(CCCF)C2)cn1)N(CC(F)(F)CO)[C@H](C)C3 [Example 12, 2,2-Difluoro-3-((5S,7R)-5-(5-(((S)-1-(3-fluoropropyl)pyrrolidin-3-yl)amino)pyridin-2-yl)-7-methyl-7,8-dihydro-[1,3]dioxolo[4,5-g]isoquinolin-6(5H)-yl-2,2-d2)propan-1-ol]
1 | 2.43 | 2.47 | C[C@@H]1Cc2cc3c(cc2[C@@H](c2ccc(N[C@H]4CCN(CCCF)C4)cn2)N1CC(F)(F)CO)OCO3 [Example 4, 2,2-Difluoro-3-((5S,7R)-5-(5-(((S)-1-(3-fluoropropyl)pyrrolidin-3-yl)amino)pyridin-2-yl)-7-methyl-7,8-dihydro-[1,3]dioxolo[4,5-g]isoquinolin-6(5H)-yl)propan-1-ol]
